Reference: EP3178809A1, “HYBRID MOLECULE WITH STRUCTURAL AND ACTIVITY ELEMENTS OF RESVERATROL AND DIALLYL SULFIDE” (Albert-Ludwigs-Universität Freiburg, priority 2015, dated 2017)
“Also recorded” adds a separate entry of the source.

Legend:
[1] = tested on: humane Magenkarzinomzellen MKN-45; experiment: Apoptosis induction in tumour cells (morphological criteria, duplicate assays); type: cell-based, human; details: MKN-45, apoptosis
Protocol: Nach 3 Stunden bei 37 ° C, 5 % CO2 wurden die Prozentsätze apoptotischer Zellen bestimmt. […] Nach 3 Stunden bei 37 ° C, 5 % CO2 wurden die Prozentsätze apoptotischer Zellen bestimmt.
Die Daten basieren allesamt auf der quantitativen Bestimmung der Apoptose mittels der klassischen morphologischen Kriterien Kernkondensation, Kernfragmentation und Membrane Blebbing nach definierten Inkubationszeiten bei 37°C.
Die Ansätze erfolgten bei einer Zelldichte von 125 000 Zellen/ml in 96-Loch-Platten mit einem Reaktionsvolumen von 100 µl. Alle Ansätze wurden als Doppelansätze geführt und pro Messpunkt wurden mindestens 200 Zellen morphologisch bewertet. Eine detaillierte Aufstellung der verwendeten Medien, Inhibitoren, Zellen ist in den Arbeiten Scheit and Bauer, 2015; Bauer und Zarkovic, 2014; Bauer et al., 2014; Bauer, 2015 beschrieben.
Um zu klären, ob das Hybridmolekül aus Struktur- und Wirkungselementen von Resveratrol und Diallyldisulfid in der Lage ist, Apoptose in Tumorzellen zu induzieren, und dabei zu prüfen, ob sich durch die Kombination der Einzelfunktionen in einem Molekül der Synergieeffekt bündeln ließ, wurden steigende Konzentrationen des Hybridmoleküls zu Magenkarzinomzellen der Linie MKN-45 gegeben. Die als Parallelansätze geführten Ansätze wurden sowohl ohne als auch in Anwesenheit von 2 mM des Singulettsauerstofffängers Histidin inkubiert, um zu prüfen, ob der durch das Hybridmolekül ausgelöste Effekt durch Singulettsauerstoff vermittelt wird. Zum Vergleich wurde das gleiche Experiment mit steigenden Konzentrationen DADS durchgeführt, ebenfalls mit und ohne Histidinzugabe. Nach 3,5 Stunden Inkubation wurde der Prozentsatz apoptotischer Zellen bestimmt.

[2] = target: T1, NOX1 von Magenkarzinomzellen (Homo sapiens, UniProt Q9Y5S8); experiment: Stimulation of superoxide anion production (shift of Cu/ZnSOD inhibition curve of 3-AT-reactivated apoptosis signalling); type: cell-based; details: 0.9 µM, MKN-45, 100 mM 3-AT plus Cu/ZnSOD, 5,5 Stunden
T1 construct: endogenous in cells; host or cells: MKN-45
T1 sequence (Q9Y5S8 1-564): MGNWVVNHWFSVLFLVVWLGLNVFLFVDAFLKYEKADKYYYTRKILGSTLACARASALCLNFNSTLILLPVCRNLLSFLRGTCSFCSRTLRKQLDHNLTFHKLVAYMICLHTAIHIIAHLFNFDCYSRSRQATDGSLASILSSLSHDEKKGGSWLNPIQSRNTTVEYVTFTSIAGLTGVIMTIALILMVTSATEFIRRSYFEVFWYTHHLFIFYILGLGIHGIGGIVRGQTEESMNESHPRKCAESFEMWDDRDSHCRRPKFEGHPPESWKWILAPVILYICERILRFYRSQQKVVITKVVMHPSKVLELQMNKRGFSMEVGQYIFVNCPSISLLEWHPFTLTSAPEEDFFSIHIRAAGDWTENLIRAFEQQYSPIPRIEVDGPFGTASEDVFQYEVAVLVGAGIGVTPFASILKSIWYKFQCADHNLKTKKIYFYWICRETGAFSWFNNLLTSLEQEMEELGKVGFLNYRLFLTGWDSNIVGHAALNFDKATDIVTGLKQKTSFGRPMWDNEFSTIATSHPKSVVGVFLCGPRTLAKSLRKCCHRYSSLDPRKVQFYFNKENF
T1 sequence (P13498 1-195 partner): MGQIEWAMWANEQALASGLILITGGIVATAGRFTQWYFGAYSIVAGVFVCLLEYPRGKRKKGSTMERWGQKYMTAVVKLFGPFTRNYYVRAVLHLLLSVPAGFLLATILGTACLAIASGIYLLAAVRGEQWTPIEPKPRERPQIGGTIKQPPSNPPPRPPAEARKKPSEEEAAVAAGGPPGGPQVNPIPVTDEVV
Protocol: MKN-45-Zellen unter Standardbedingungen erhielten zunächst keinen Zusatz (Kontrolle) oder 0.9 µM Resveratrol oder der Resveratrolderivate HT 161, HT 163, HT 182, die durch unterschiedliche Blockierung der drei vorhandenen OH-Gruppen gekennzeichnet sind. Dabei waren beim Derivat HT 161 alle drei OH-Gruppen durch TBS (tert-Butyldimethylsilyl) blockiert, beim Derivat HT 163 die beiden OH-Gruppen in den Positionen 3'und 5'blockiert und beim Derivat HT 182 selektiv nur die OH-Gruppe in der Position 4'blockiert.
Danach erfolgte die Zugabe von 100 mM 3-AT (Katalasehemmstoff) und der angegebenen Konzentrationen von Cu/ZnSOD. Nach 5,5 Stunden erfolgte die Bestimmung der Prozentsätze apoptotischer Zellen in Doppelansätzen.
Da 3-AT Superoxidanionen-abhängiges interzelluläres Apoptose-auslösendes Signaling reaktiviert, wird der Prozess durch Cu/Zn-SOD blockiert, wobei sich eine typische Glockenkurve ausbildet. Der biochemische Grund dafür wird in Bauer et al., Carcinogenesis 35: 1582-1591, 2014 dargestellt.
Die Messung der extrazellulären Superoxidanionenkonzentration von Tumorzellen sowie die Bestrahlungstechnik mit Niedrigdosis-Gammastrahlung wird in der Arbeit Temme and Bauer, 2013 beschrieben. Die Hemmung der NOD wird bei Scheit and Bauer, 2015, beschrieben. Viele Versuchsergebnisse wurden in den Figuren dargestellt. […]

In the case of `Oc1ccc(C=Cc2cc(O)cc(O)c2)cc1` [Resveratrol], the “Synergieeffekt mit Taxol” value [1] is reported as “Synergieeffekt”, the “Synergieeffekt mit DADS” value ([1]; 3,5 Stunden (Figur 10) or 5,5 Stunden (Figur 15)) is reported as “konzentrationsabhängigen beachtlichen Synergieeffekt; also recorded: zur Ausprägung eines Synergieeffektes mit DADS befähigt” and the “stimulierende Wirkung auf die Superoxidanionensynthese” value [2] is reported as “Rechtsverschiebung der Kurve”.
